Results on one compound are retold here after publication PMC6717000 (Biosensors & bioelectronics, 2019).

The experiment relates to Acid phosphatase from potato (AcP). Kind of experiment: phenolCEST MRI of released phenol, initial velocity over […] min. The experiment is classed as biochemical, Solanum tuberosum. The conditions noted are these: pH 5.0, 37 °C, 10 mM acetate buffer, 10 mM Mg2+.

Usually Km stands for the concentration of substrate that gives half-maximal velocity. For `O=P(O)(O)Oc1ccccc1` [PP, phenyl phosphate], the Michaelis-Menten constant (Km) was found to be 3.5 mM.
